Assays:
[1] = tested on: nonsense mediated decay (NMD); assay: Real time PCR of STAG2 transcripts in RPE STAG2 knockout cells; format: cell-based; details: serial dilution starting at 10 uM, 16 hrs
Description: RPE STAG2 knockout cells were created and plated into 96 well plates at 1e4 cells/well. The compound of Formula II was solubilized in DMSO and added in a serial dilution starting at 10 uM and diluting 1:2. Cells were incubated for 16 hrs at 37 C and 5% CO2. RNA was harvested using an RNeasy kit (Qiagen). Real time PCR was performed using primers specific for STAG2 transcripts and at least one primer overlapped an exon-exon boundary (FIG. 7A).

[2] = tested on: mutant protein (TP53); assay: TP53 western blot in TP53 KO lines; format: cell-based; details: 5 uM, 16 hours
Description: TP53 KO lines were created and plated (at 1e5 cells per well) into 6 well plates. Wells were treated with 5 uM of the compound of Formula II for 16 hours. Cells were harvested, pelleted and washed with PBS. Cells were lysed using RIPA buffer (Thermo Scientific) and then run through a Qiashredder column (Qiagen) following manufacturer's instructions. Protein was quantified using a BCA Kit (Pierce). 50 ug of protein was loaded into 5-15% polyacrylamide gels (Biorad) and run for 30 min at 200V. Protein was transferred to a nitrocellulose membrane following manufacturer's recommendations and stained with a TP53 protein (clone DO-1 from Cell Signaling) overnight in 3% milk with TBS-T. HRP conjugated secondary antibody was used for detection and imaged on a gel imager (Bio Rad) (FIG. 7B).

[3] = tested on: truncated mutant TP53 protein; assay: TP53 western blot in TP53 knockout clones; format: cell-based; details: for expression of truncated mutant TP53 protein: TP53 knockout cell line with homozygous mutation, DO-1 antibody
Description: (§1) To confirm generality of the NMD HTS hits, validations were performed on isogenic STAG2 and TP53 knockouts in a second cell line background, RPtec (renal) cells. Transcript recovery was first evaluated in STAG2 and TP53 isogenic knockout clones from this second background. […] A TP53 knockout cell line was then selected with a homozygous mutation predicted to generate a truncated TP53 protein readily identifiable by established TP53 antibodies (DO-1). […] Using cell lines where the TP530 isoform transcripts are expected to be intact, an increase in the TP53$ isoform was also observed in cell lines treated with the NMD inhibitors (FIG. 1E middle and left column). […] Based on strong induction of predicted mutant truncated protein across multiple isogenic cell lines LY3023414 was selected as the NMD inhibiting compound of interest. LY3023414 was created as a phosphatidylinositol 3-kinase (PI3K) inhibitor with activity against AKT Serine/Threonine Kinase 1 (AKT1) and Target of Rapamycin (mTOR).

[4] = tested on: nonsense mediated decay (NMD); assay: NCI-H358 and LS180 xenograft tumors in NOD-SCID mice, mutant RNA transcripts and tolerability; format: in vivo
[5] = tested on: nonsense mediated decay (NMD); assay: Targeted RNA sequencing of heterozygous indel mutations in NCI-H358 and LS180 cells; format: cell-based; details: NCI-H358 and LS180, in vitro
Excerpt: (§2) It was next sought to evaluate whether LY3023414 could relieve repression of indel containing transcripts in cancer cells. The microsatellite stable NCI-H358 and microsatellite instable LS180 lung and colorectal cancer cell lines were chosen respectively. Nearly 40% of heterozygous indel and 25% of nonsense single base-pair mutation containing genes show increased expression of their mutant allele when treated with LY3023414 when evaluated by RNA sequencing (FIG. 2A). […] Heterozygous single nucleotide polymorphism (SNP) Ring Finger Protein 43 (RNF43) and drosha ribonuclease […] (DROSHA) served as controls, and allele ratios remain unchanged with treatment (FIG. 2B). To investigate for changes at the protein level, NCI-H358 cells were treated for 24 hours with either LY3023414 or DMSO.
(§3) Analyzing a wider set of 21 NMD sensitive genes from the RNA-Seq analysis in LS180 confirmed that LY3023414 and SMG1 specific inhibitor increase the same 18 genes with a greater than 80% re-expression rate, in both cell lines. […] As SMG1 inhibition is an off target effect for LY3023414, the concentrations used in this study may result in inhibition of a number of different kinases.
(§4) To confirm disruption of downstream signaling of SMG1, a western blot was performed with phosphorylation specific antibodies for UPF1.

[6] = tested on: phosphorylated UPF1; assay: Phospho-UPF1 specific western blot; format: cell-based; details: FIG. 3D
Description: as §3, §4

[7] = tested on: NMD sensitive transcripts (TP53β); assay: Quantitative real time PCR of TP53α and TP53β transcripts in parental RPE1 and RPTec cells; format: cell-based
Description: as §1

[8] = tested on: NMD targeted mutant protein (EXOC1, SPTAN1); assay: Western blot of mutant proteins in NCI-H358 and LS180 cells; format: cell-based; details: NCI-H358 cells, 24 hours
Excerpt: as §2, §3, §4

[9] = tested on: nonsense mediated decay (NMD); assay: RNA sequencing of NCI-H358 and LS180 cancer cell lines; format: cell-based
Excerpt: as §2, §3

[10] = tested on: nonsense mediated decay (NMD); assay: Ratiometric mutant/wild type transcript sequencing assay (HTS) in RPE1 STAG2 and TP53 isogenic knockout cell lines; format: cell-based
Excerpt: An experimental system was generated to identify and evaluate NMD inhibitors based on a panel of isogenic cell lines developed to assess tumor suppressor gene function and synthetic lethality. Briefly, common tumor suppressor genes were individually knocked out in multiple non-cancerous cell lines using the Clustered Regularly Interspaced Short Palindromic Repeats (CRISPR)-Cas9 system. As part of this effort, two genes displaying strong activation of NMD in response to indel creation were identified, Stromal Antigen 2 (STAG2) and Tumor Protein p53 (TP53). The absence of detectable protein in these knock out cell lines was verified via western blots against STAG2 and immunohistochemistry for TP53. Further, active RNA decay of the mutant transcripts was identified through whole transcriptome RNA-sequencing. […]
A high throughput screen (HTS) was then performed by treating the isogenic cell line mixture with the SelleckChem Bioactive library, consisting of 2,658 small molecules and natural products (FIG. 1A). Total RNA was harvested from cells 16 hours post treatment and the gRNA target regions were amplified using a panel of primers (one for TP53 and one for STAG2) and mutant and wild type transcript abundance was quantified using next generation sequencing. […]

[11] = tested on: mutant form of TP53 protein; assay: Western blot against TP53 in NCI-H716 and NCI-H2228 cell lines
[12] = tested on: nonsense mediated decay (NMD); assay: Targeted RNA-sequencing of indel genes in LS180 cells; format: cell-based; details: serial dilution starting at 5 uM, 16 hrs
Description: LS180 Cells were plated into 96 well plates at 1e4 cells/well. The compound of Formula III was solubilized in DMSO and added in a serial dilution starting at 5 uM and diluting 1:2. Cells were incubated for 16 hrs at 37 C and 5% CO2. RNA was harvested using an RNeasy kit (Qiagen). Reverse transcription was performed per manufacturer's instructions (High Capacity cDNA kit from Applied Biosciences). Primers specific for the indel mutation site for 3 genes were used, and at least one primer from each set overlapped an exon-exon boundary. RNF43 is a common SNP that is heterozygous in LS180 and was used as a negative control. After PCR amplification, products were barcoded with an 8 bp sequence so the well it originated in could be determined, and sequenced on a Miseq (Illumina). Transcripts from the wild type and mutant allele were counted to determine abundance of each with treatment or without (FIG. 8A).

[13] = tested on: nonsense mediated decay (NMD); assay: Targeted RNA-sequencing of subcutaneous H358 and LS180 tumors in nude mice; format: in vivo; details: IP dose at 30 mg/kg, H358 or LS180 tumors, 16 hours after treatment
Description: All animal work was done under the supervision and guidance of Johns Hopkins Animal Care and Use committee with appropriate protocols and humane standards of care. LS180 and H358 cell lines (ATCC) were placed subcutaneously in the back of nude mice (Jackson Laboratories). The compound of Formula III was solubilized in 10% cremaphor (Sigma Aldrich) with 2% glycerol (Sigma Aldrich) and sterilized by 0.22 uM filter (Thermo Scientific). After tumors reached palpable size, about 7 days, mice were treated with […] of the compound of Formula III by IP injection. 16 hours after treatment, mice were sacked, and tumors were harvested and stored in RNA Later (Thermo Scientific). RNA was harvested using an RNeasy kit (Qiagen) and Qiashredder (Qiagen). Reverse transcription was performed per manufacturer's instructions (High Capacity cDNA kit from Applied Biosciences). Primers specific for the indel mutation site for 3 genes were used, and at least one primer from each set overlapped an exon-exon boundary. […] After PCR amplification, products were barcoded with an 8 bp sequence so the well it originated in could be determined, and sequenced on a Miseq (Illumina). Transcripts from the wild type and mutant allele were counted to determine abundance of each with treatment or without (FIGS. 9A-9B).

[14] = tested on: mutant protein (TP53); assay: TP53 western blot in H358, LS180 and RPE TP53 KO clone 224; format: cell-based; details: 5 uM, 16 hours
Description: H358 (negative control), LSl80, and RPE TP53 KO line clone 224 were plated (at 1e5 cells per well) into 6 well plates. Wells were treated with 5 uM of the compound of Formula III for 16 hours. Cells were harvested, pelleted and washed with PBS. Cells were lysed using RIPA buffer (Thermo Scientific) and then run through a Qiashredder column (Qiagen) following manufacturer's instructions. Protein was quantified using a BCA Kit (Pierce). 50 ug of protein was loaded into 5-15% polyacrylamide gels (Biorad) and run for 30 min at 200V. Protein was transferred to a nitrocellulose membrane following manufacturer's recommendations and stained with a TP53 protein (clone DO-1 from Cell Signaling) overnight in 3% milk with TBS-T. HRP conjugated secondary antibody was used for detection and imaged on a gel imager (Bio Rad) (FIG. 8B).

CNC(=O)Nc1ccc(-c2cc(-c3ccnc(Nc4ccc(Cl)c(S(=O)(=O)N(CCO)CCO)c4)n3)ccn2)cc1 [compound of Formula II]
mutant RNA re-expression [1]: re-expresses mutant RNA | mutant protein re-expression [2]: re-expresses mutant protein

CO[C@@H](C)Cn1c(=O)n(C)c2cnc3ccc(-c4cncc(C(C)(C)O)c4)cc3c21 [LY3023414]
induction of TP53β and mutant TP53 (western blot) ([3]; RPE TP53 clone 223, RPTec TP53 KO 588, full-length not induced): prominently induced | expression of truncated mutant TP53 protein [3]: robustly induced expression of the truncated mutant TP53 protein | autopsies of treated animals ([4]; mice treated with LY3023414): no abnormalities | weight loss ([4]; mice treated with LY3023414): severe weight loss | expression of mutant RNA transcripts in tumors ([4]; single dose by oral gavage, tumors harvested over 24 hours): increase in the expression of mutant RNA transcripts | mutant allele RNA expression [5]: significant increased expression of the mutant allele | phospho-UPF1 levels [6]: increases the levels of phospho-UPF | TP53α and TP53β transcript levels [7]: only the NMD regulated (TP53β) transcript levels increased with treatment | truncated mutant EXOC1 and SPTAN1 protein expression [8]: truncated mutant protein only expressed after treatment with LY3023414 | heterozygous indel containing genes with increased expression of mutant allele [9]: ~40% | nonsense single base-pair mutation containing genes with increased expression of mutant allele [9]: 25%

O=C(CC1NCCCC1O)Cn1cnc2cc(Br)c(Cl)cc2c1=O (centres unmarked) [halofuginone]
expression of truncated mutant TP53 protein [3]: robustly induced expression of the truncated mutant TP53 protein

CC[C@H]1CN2CCc3cc(OC)c(OC)cc3[C@@H]2C[C@@H]1C[C@H]1NCCc2cc(OC)c(OC)cc21 [emetine]
recovery of mutant RNA transcript expression ([10]; RPE1 STAG2/TP53 knockout cell line mixture): 6 fold

O=c1[nH]cc(F)c(=O)[nH]1 [5-fluorouracil]
TP53 protein levels [11]: no effect on TP53 levels

COc1ccc(C[C@H]2NC[C@H](O)[C@H]2OC(C)=O)cc1 [Anisomycin]
mutant transcript fraction ([10]; 16 hours post treatment, in all three cell lines, 0.5 = 4 standard deviations above DMSO controls): above 0.5

CNC(=O)Nc1ccc(-c2cc(-c3ccnc(Nc4ccc(Cl)c(S(=O)(=O)N5CCN(C)CC5)c4)n3)ccn2)cc1 [compound of Formula III]
mutant RNA re-expression [12]: re-expresses mutant RNA in vitro | in vivo NMD inhibition (re-expression of NMD downregulated genes) [13]: in vivo NMD inhibition activity | mutant protein re-expression [14]: re-expresses mutant protein in vitro

Reference: patent US20260272923A1, “NONSENSE MEDIATED DECAY INHIBITOR COMPOUNDS” (The Johns Hopkins University, priority 2023, published 2026)
